Where two headings read alike, the source gives them in different places.
Assays:
[1] = molecular target: T1, BRAFV600E full-length (amino acids 2-766) (Homo sapiens, UniProt P15056, V600E); assay: B-Raf Accelerated MEK ATPase assay (BRAMA); assay type: biochemical; conditions: categorized
T1 construct: His6-tagged BRAFV600E full-length (amino acids 2-766); His6; made in house; host or cells: baculovirus expression system (insect cells)
In short: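 Coupled-enzyme readout: ADP generated by MEK-mediated ATP hydrolysis, uncoupled from ERK phosphorylation, is linked to NADH oxidation through pyruvate kinase and lactate dehydrogenase.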

[2] = test system: Human colon tumor cells (Colo205); assay: Cell growth inhibition assay (CellTiter-Glo), Colo205; assay type: cell-based
In short: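 Growth is estimated from total cellular ATP measured by CellTiter-Glo luminescence after a 3-day compound exposure at 37 °C. Compounds are tested as 1:3 dilution series in 0.2% final DMSO, with inhibition expressed relative to vehicle-treated wells.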

[3] = test system: Human melanoma cancer cells (SK-MEL-28); assay: Cell growth inhibition assay (CellTiter-Glo), SK-MEL-28; assay type: cell-based
[4] = B-Raf Activity, Table 1a, highest pIC50 for the one or more runs
[5] = B-Raf pIC50, Table 1b, later runs, average pIC50 for the one or more runs
[6] = COLO 205, 72 h, Table 2a, 3 days incubation, read-out: Activity in Colo205 Tumor Cells
[7] = COLO 205, Table 2b, later runs, average for the one or more runs, categorized, read-out: IC50 for Colo205
[8] = SK-MEL-28, 72 h, Table 3a, 3 days incubation, read-out: Activity in SK-MEL-28 Tumor Cells
[9] = SK-MEL-28, Table 3b, later runs, average for the one or more runs, categorized, read-out: IC50 for SK-MEL-28
[10] = Table 1b, later runs, average pIC50 for the one or more runs, read-out: B-Raf pIC50 (converted)

T1 sequence (P15056 2-766 V600E): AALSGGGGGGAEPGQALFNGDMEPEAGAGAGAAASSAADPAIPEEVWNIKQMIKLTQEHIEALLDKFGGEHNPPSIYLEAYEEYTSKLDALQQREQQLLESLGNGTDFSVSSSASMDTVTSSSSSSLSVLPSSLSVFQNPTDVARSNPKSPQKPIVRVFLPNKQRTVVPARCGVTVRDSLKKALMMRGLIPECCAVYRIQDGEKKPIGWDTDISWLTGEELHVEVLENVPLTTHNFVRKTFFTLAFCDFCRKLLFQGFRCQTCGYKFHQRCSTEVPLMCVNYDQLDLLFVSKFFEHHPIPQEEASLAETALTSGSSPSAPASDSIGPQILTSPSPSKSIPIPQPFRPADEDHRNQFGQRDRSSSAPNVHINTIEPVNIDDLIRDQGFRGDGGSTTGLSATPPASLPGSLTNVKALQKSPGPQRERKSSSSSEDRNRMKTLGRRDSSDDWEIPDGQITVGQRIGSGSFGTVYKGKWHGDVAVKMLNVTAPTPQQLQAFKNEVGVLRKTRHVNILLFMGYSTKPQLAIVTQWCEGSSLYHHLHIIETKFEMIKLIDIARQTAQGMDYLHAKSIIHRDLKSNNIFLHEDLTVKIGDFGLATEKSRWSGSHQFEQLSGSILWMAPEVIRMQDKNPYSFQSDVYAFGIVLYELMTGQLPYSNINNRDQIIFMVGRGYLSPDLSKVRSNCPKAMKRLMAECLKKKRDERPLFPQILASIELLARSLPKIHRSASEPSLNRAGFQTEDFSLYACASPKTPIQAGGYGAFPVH

Row | SMILES | IC50 [1, 4] [nM] | IC50 [1, 5] [nM] | IC50 [2, 6] [nM] | IC50 [2, 7] [nM] | IC50 [3, 8] [nM] | IC50 [3, 9] [nM] | IC50 [1, 10] [nM]
1 | CC(=O)NCCNc1nccc(-c2sc(C(C)C)nc2-c2cccc(NS(=O)(=O)c3cc(F)ccc3F)c2F)n1 [Example 187] | < 100 | ≤ 3.16 | < 100 | 1000 to 10000 | < 100 | < 100 | –
2 | O=C1CCCN1CCCNc1nccc(-c2sc(N3CCOCC3)nc2-c2cccc(NS(=O)(=O)c3cc(F)ccc3F)c2F)n1 [Example 188] | < 100 | ≤ 3.16 | < 100 | < 100 | < 100 | < 100 | –
3 | CC(C)c1nc(-c2cccc(NS(=O)(=O)c3cc(F)ccc3F)c2F)c(-c2ccnc(NCCNC(=O)OC(C)(C)C)n2)s1 [Example 189] | < 100 | ≤ 3.16 | < 100 | < 100 | < 100 | < 100 | –
4 | CC(C)c1nc(-c2cccc(NS(=O)(=O)c3cc(F)ccc3F)c2F)c(-c2ccnc(NCCN3CCCC3=O)n2)s1 [Example 190] | < 100 | ≤ 3.16 | < 100 | < 100 | < 100 | < 100 | –
5 | CC(C)c1nc(-c2cccc(NS(=O)(=O)c3cc(F)ccc3F)c2F)c(-c2ccnc(NCCNS(C)(=O)=O)n2)s1 [Example 191] | < 100 | ≤ 3.16 | < 100 | < 100 | < 100 | < 100 | –
6 | CC(C)c1nc(-c2cccc(NS(=O)(=O)c3cc(F)ccc3F)c2F)c(-c2ccnc(NCCNC(=O)CO)n2)s1 [Example 192] | < 100 | ≤ 3.16 | 100 to 1000 | 100 to 1000 | 100 to 1000 | < 100 | –
7 | CC(C)c1nc(-c2cccc(NS(=O)(=O)c3cc(F)ccc3F)c2F)c(-c2ccnc(NCCCNC(=O)OC(C)(C)C)n2)s1 [Example 193] | < 100 | – | 100 to 1000 | 100 to 1000 | 100 to 1000 | 100 to 1000 | 3.16 to 31.6
8 | CC(=O)NCCCNc1nccc(-c2sc(C(C)C)nc2-c2cccc(NS(=O)(=O)c3cc(F)ccc3F)c2F)n1 [Example 194] | < 100 | ≤ 3.16 | < 100 | – | < 100 | < 100 | –
9 | CC(=O)NCCNc1nccc(-c2sc(C(C)(C)C)nc2-c2cccc(NS(=O)(=O)c3cc(F)ccc3F)c2F)n1 [Example 197] | < 100 | ≤ 3.16 | < 100 | < 100 | < 100 | < 100 | –
10 | CC(C)(C)OC(=O)NCCNc1nccc(-c2sc(C(C)(C)C)nc2-c2cccc(NS(=O)(=O)c3cc(F)ccc3F)c2F)n1 [Example 198] | < 100 | ≤ 3.16 | 100 to 1000 | 100 to 1000 | 100 to 1000 | 100 to 1000 | –
11 | CC(C)(C)c1nc(-c2cccc(NS(=O)(=O)c3cc(F)ccc3F)c2F)c(-c2ccnc(NCCNS(C)(=O)=O)n2)s1 [Example 199] | < 100 | ≤ 3.16 | < 100 | < 100 | < 100 | < 100 | –
12 | Nc1nccc(-c2sc(N3CCOCC3)nc2-c2cccc(NS(=O)(=O)c3cc(F)ccc3F)c2)n1 [Example 200] | < 100 | – | 100 to 1000 | 100 to 1000 | 100 to 1000 | 100 to 1000 | 3.16 to 31.6
13 | CC(C)c1nc(-c2ccc(F)c(NS(=O)(=O)c3cc(F)ccc3F)c2)c(-c2ccnc(NCCS(C)(=O)=O)n2)s1 [Example 201] | < 100 | ≤ 3.16 | < 100 | < 100 | < 100 | < 100 | –
14 | CS(=O)(=O)CCNc1nccc(-c2sc(N3CCOCC3)nc2-c2ccc(F)c(NS(=O)(=O)c3c(F)cccc3F)c2)n1 [Example 202] | < 100 | 31.6 to 1000 | > 1000 | 1000 to 10000 | 100 to 1000 | 100 to 1000 | –
15 | CC(C)c1nc(-c2ccc(F)c(NS(=O)(=O)c3cc(F)ccc3F)c2)c(-c2ccnc(NCCCS(C)(=O)=O)n2)s1 [Example 204] | < 100 | – | < 100 | < 100 | < 100 | < 100 | 3.16 to 31.6
16 | CC(C)c1nc(-c2ccc(F)c(NS(=O)(=O)c3cc(F)ccc3F)c2)c(-c2ccnc(NC3CCS(=O)(=O)CC3)n2)s1 [Example 205] | < 100 | – | 100 to 1000 | 100 to 1000 | 100 to 1000 | 100 to 1000 | 3.16 to 31.6
17 | CC(C)CNc1nccc(-c2sc(N3CCOCC3)nc2-c2cccc(NS(=O)(=O)c3cc(F)ccc3F)c2)n1 [Example 206] | < 100 | – | < 100 | < 100 | < 100 | < 100 | 3.16 to 31.6
18 | O=S(=O)(Nc1cccc(-c2nc(N3CCOCC3)sc2-c2ccnc(NCCO)n2)c1F)c1cc(F)ccc1F [Example 208] | < 100 | ≤ 3.16 | < 100 | < 100 | < 100 | < 100 | –
19 | O=S(=O)(Nc1cccc(-c2nc(N3CCOCC3)sc2-c2ccnc(NCC3CCCO3)n2)c1F)c1cc(F)ccc1F (centres unmarked) [Example 209] | < 100 | ≤ 3.16 | < 100 | < 100 | < 100 | < 100 | –
20 | CC(C)(C)c1nc(-c2cccc(NS(=O)(=O)c3cc(F)ccc3F)c2F)c(-c2ccnc(NCCO)n2)s1 [Example 210] | < 100 | ≤ 3.16 | < 100 | < 100 | < 100 | < 100 | –
21 | COCCCNc1nccc(-c2sc(C(C)(C)C)nc2-c2cccc(NS(=O)(=O)c3cc(F)ccc3F)c2F)n1 [Example 211] | < 100 | ≤ 3.16 | < 100 | < 100 | < 100 | < 100 | –
22 | CCOCCNc1nccc(-c2sc(C(C)(C)C)nc2-c2cccc(NS(=O)(=O)c3cc(F)ccc3F)c2F)n1 [Example 212] | < 100 | ≤ 3.16 | < 100 | < 100 | < 100 | < 100 | –
23 | CC(C)(C)c1nc(-c2cccc(NS(=O)(=O)c3cc(F)ccc3F)c2F)c(-c2ccnc(NCC3CCCO3)n2)s1 (centres unmarked) [Example 213] | < 100 | ≤ 3.16 | < 100 | < 100 | < 100 | < 100 | –
24 | CC(C)(C)c1nc(-c2cccc(NS(=O)(=O)c3cc(F)ccc3F)c2F)c(-c2ccnc(CCS(C)(=O)=O)n2)s1 [Example 214] | < 100 | ≤ 3.16 | < 100 | < 100 | < 100 | < 100 | –
25 | CC(C)(C)c1nc(-c2cccc(NS(=O)(=O)c3cc(F)ccc3F)c2F)c(-c2ccnc(CCN3CCOCC3)n2)s1 [Example 215] | < 100 | – | < 100 | < 100 | < 100 | < 100 | 3.16 to 31.6

— patent US7994185B2, “Benzene sulfonamide thiazole and oxazole compounds” (Glaxo Smith Kline LLC, priority 2008, dated 2011)
